Results published in US11793849B2, “Method of Chinese herbal medicine extract used for treating multiple diseases caused by drug resistant bacteria infection” (priority 2016, dated 2023).
Like-named read-outs stand apart in the source and are kept apart here.

Test system: MDRAB
Test: Checkerboard assay (combined-use MIC, FIC)
Format: cell-based, Acinetobacter baumannii
Conditions: for FIC, all strains / MIC50 of the antibiotic after combined use / MIC90 of the antibiotic after combined use / reduction of the antibiotic's MIC50 vs single use / reduction of the antibiotic's MIC90 vs single use / share of strains with FIC ≤ 0.5: 20 MDRABs; for MIC: Acinetobacter baumannii, EA=60% ethanol extract, read-out: single-use MIC
Outline: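 Checkerboard combinations of S20b and antibiotic run per NCCLS method against ESBL E. coli, MDR A. baumannii and MDR P. aeruginosa.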

[1] = antibiotic with 60% ethanol extract
[2] = antibiotic with 95% ethanol extract
[3] = antibiotic with EA (10% ethanol extract)
[4] = antibiotic with EA (water extract)

## CC(C)(O/N=C(\C(=O)N[C@@H]1C(=O)N2C(C(=O)[O-])=C(C[n+]3ccccc3)CS[C@H]12)c1csc(N)n1)C(=O)O [CAZ, Ceftazidime]
[1]
  FIC, all strains: ≤ 2
  MIC50 of the antibiotic after combined use: 128 µg/mL
  MIC90 of the antibiotic after combined use: 256 µg/mL
  reduction of the antibiotic's MIC50 vs single use: 75%
  reduction of the antibiotic's MIC90 vs single use: 50%
  share of strains with FIC ≤ 0.5: 10%
[2]
  FIC, all strains: ≤ 2
  MIC50 of the antibiotic after combined use: 128 µg/mL
  MIC90 of the antibiotic after combined use: 256 µg/mL
  reduction of the antibiotic's MIC50 vs single use: 75%
  reduction of the antibiotic's MIC90 vs single use: 50%
  share of strains with FIC ≤ 0.5: 10%
[3]
  FIC, all strains: ≤ 2
  MIC50 of the antibiotic after combined use: 128 µg/mL
  MIC90 of the antibiotic after combined use: 256 µg/mL
  reduction of the antibiotic's MIC50 vs single use: 75%
  reduction of the antibiotic's MIC90 vs single use: 50%
  share of strains with FIC ≤ 0.5: 30%
[4]
  FIC, all strains: ≤ 2
  MIC50 of the antibiotic after combined use: 128 µg/mL
  MIC90 of the antibiotic after combined use: 256 µg/mL
  reduction of the antibiotic's MIC50 vs single use: 75%
  reduction of the antibiotic's MIC90 vs single use: 50%
  share of strains with FIC ≤ 0.5: 20%
Strain A1
  MIC: 128 µg/mL
Strain A2
  MIC: 512 µg/mL
Strain A3
  MIC: 512 µg/mL
Strain A4
  MIC: 256 µg/mL
Strain A5
  MIC: 64 µg/mL
Strain A6
  MIC: 1020 µg/mL
Strain A7
  MIC: 1020 µg/mL
Strain A8
  MIC: 512 µg/mL
Strain A9
  MIC: 512 µg/mL
Strain A10
  MIC: 512 µg/mL
Strain A11
  MIC: 512 µg/mL
Strain A12
  MIC: 512 µg/mL
Strain A13
  MIC: 256 µg/mL
Strain A14
  MIC: 512 µg/mL
Strain A15
  MIC: 256 µg/mL
Strain A16
  MIC: 512 µg/mL
Strain A17
  MIC: 256 µg/mL
Strain A18
  MIC: 512 µg/mL
Strain A19
  MIC: 256 µg/mL
Strain A20
  MIC: 512 µg/mL
Strain A1, EA (10% ethanol extract) with CAZ
  combined-use MIC: 64 µg/mL
Strain A1, EA (60% ethanol extract) + CAZ combined
  combined-use MIC: 64 µg/mL
Strain A1, EA (P. clypearia 95% ethanol extract) combined with CAZ
  combined-use MIC: 64 µg/mL
Strain A1, EA (water extract) with CAZ
  combined-use MIC: 64 µg/mL
Strain A2, EA (10% ethanol extract) with CAZ
  combined-use MIC: 256 µg/mL
Strain A2, EA (60% ethanol extract) + CAZ combined
  combined-use MIC: 128 µg/mL
Strain A2, EA (P. clypearia 95% ethanol extract) combined with CAZ
  combined-use MIC: 128 µg/mL
Strain A2, EA (water extract) with CAZ
  combined-use MIC: 256 µg/mL
Strain A3, EA (10% ethanol extract) with CAZ
  combined-use MIC: 256 µg/mL
Strain A3, EA (60% ethanol extract) + CAZ combined
  combined-use MIC: 128 µg/mL
Strain A3, EA (P. clypearia 95% ethanol extract) combined with CAZ
  combined-use MIC: 128 µg/mL
Strain A3, EA (water extract) with CAZ
  combined-use MIC: 256 µg/mL
Strain A4, EA (10% ethanol extract) with CAZ
  combined-use MIC: 64 µg/mL
Strain A4, EA (60% ethanol extract) + CAZ combined
  combined-use MIC: 64 µg/mL
Strain A4, EA (P. clypearia 95% ethanol extract) combined with CAZ
  combined-use MIC: 64 µg/mL
Strain A4, EA (water extract) with CAZ
  combined-use MIC: 32 µg/mL
Strain A5, EA (10% ethanol extract) with CAZ
  combined-use MIC: 32 µg/mL
Strain A5, EA (60% ethanol extract) + CAZ combined
  combined-use MIC: 32 µg/mL
Strain A5, EA (P. clypearia 95% ethanol extract) combined with CAZ
  combined-use MIC: 32 µg/mL
Strain A5, EA (water extract) with CAZ
  combined-use MIC: 32 µg/mL
Strain A6, EA (10% ethanol extract) with CAZ
  combined-use MIC: 512 µg/mL
Strain A6, EA (60% ethanol extract) + CAZ combined
  combined-use MIC: 512 µg/mL
Strain A6, EA (P. clypearia 95% ethanol extract) combined with CAZ
  combined-use MIC: 512 µg/mL
Strain A6, EA (water extract) with CAZ
  combined-use MIC: 512 µg/mL
Strain A7, EA (10% ethanol extract) with CAZ
  combined-use MIC: 512 µg/mL
Strain A7, EA (60% ethanol extract) + CAZ combined
  combined-use MIC: 256 µg/mL
Strain A7, EA (P. clypearia 95% ethanol extract) combined with CAZ
  combined-use MIC: 256 µg/mL
Strain A7, EA (water extract) with CAZ
  combined-use MIC: 512 µg/mL
Strain A8, EA (10% ethanol extract) with CAZ
  combined-use MIC: 256 µg/mL
Strain A8, EA (60% ethanol extract) + CAZ combined
  combined-use MIC: 256 µg/mL
Strain A8, EA (P. clypearia 95% ethanol extract) combined with CAZ
  combined-use MIC: 256 µg/mL
Strain A8, EA (water extract) with CAZ
  combined-use MIC: 256 µg/mL
Strain A9, EA (10% ethanol extract) with CAZ
  combined-use MIC: 128 µg/mL
Strain A9, EA (60% ethanol extract) + CAZ combined
  combined-use MIC: 64 µg/mL
Strain A9, EA (P. clypearia 95% ethanol extract) combined with CAZ
  combined-use MIC: 256 µg/mL
Strain A9, EA (water extract) with CAZ
  combined-use MIC: 64 µg/mL
Strain A10, EA (10% ethanol extract) with CAZ
  combined-use MIC: 256 µg/mL
Strain A10, EA (60% ethanol extract) + CAZ combined
  combined-use MIC: 128 µg/mL
Strain A10, EA (P. clypearia 95% ethanol extract) combined with CAZ
  combined-use MIC: 256 µg/mL
Strain A10, EA (water extract) with CAZ
  combined-use MIC: 256 µg/mL
Strain A11, EA (10% ethanol extract) with CAZ
  combined-use MIC: 128 µg/mL
Strain A11, EA (60% ethanol extract) + CAZ combined
  combined-use MIC: 64 µg/mL
Strain A11, EA (P. clypearia 95% ethanol extract) combined with CAZ
  combined-use MIC: 64 µg/mL
Strain A11, EA (water extract) with CAZ
  combined-use MIC: 256 µg/mL
Strain A12, EA (10% ethanol extract) with CAZ
  combined-use MIC: 128 µg/mL
Strain A12, EA (60% ethanol extract) + CAZ combined
  combined-use MIC: 128 µg/mL
Strain A12, EA (P. clypearia 95% ethanol extract) combined with CAZ
  combined-use MIC: 128 µg/mL
Strain A12, EA (water extract) with CAZ
  combined-use MIC: 128 µg/mL
Strain A13, EA (10% ethanol extract) with CAZ
  combined-use MIC: 128 µg/mL
Strain A13, EA (60% ethanol extract) + CAZ combined
  combined-use MIC: 128 µg/mL
Strain A13, EA (P. clypearia 95% ethanol extract) combined with CAZ
  combined-use MIC: 128 µg/mL
Strain A13, EA (water extract) with CAZ
  combined-use MIC: 128 µg/mL
Strain A14, EA (10% ethanol extract) with CAZ
  combined-use MIC: 64 µg/mL
Strain A14, EA (60% ethanol extract) + CAZ combined
  combined-use MIC: 256 µg/mL
Strain A14, EA (P. clypearia 95% ethanol extract) combined with CAZ
  combined-use MIC: 256 µg/mL
Strain A14, EA (water extract) with CAZ
  combined-use MIC: 64 µg/mL
Strain A15, EA (10% ethanol extract) with CAZ
  combined-use MIC: 128 µg/mL
Strain A15, EA (60% ethanol extract) + CAZ combined
  combined-use MIC: 128 µg/mL
Strain A15, EA (P. clypearia 95% ethanol extract) combined with CAZ
  combined-use MIC: 128 µg/mL
Strain A15, EA (water extract) with CAZ
  combined-use MIC: 128 µg/mL
Strain A16, EA (10% ethanol extract) with CAZ
  combined-use MIC: 128 µg/mL
Strain A16, EA (60% ethanol extract) + CAZ combined
  combined-use MIC: 128 µg/mL
Strain A16, EA (P. clypearia 95% ethanol extract) combined with CAZ
  combined-use MIC: 256 µg/mL
Strain A16, EA (water extract) with CAZ
  combined-use MIC: 64 µg/mL
Strain A17, EA (10% ethanol extract) with CAZ
  combined-use MIC: 64 µg/mL
Strain A17, EA (60% ethanol extract) + CAZ combined
  combined-use MIC: 128 µg/mL
Strain A17, EA (P. clypearia 95% ethanol extract) combined with CAZ
  combined-use MIC: 128 µg/mL
Strain A17, EA (water extract) with CAZ
  combined-use MIC: 32 µg/mL
Strain A18, EA (10% ethanol extract) with CAZ
  combined-use MIC: 256 µg/mL
Strain A18, EA (60% ethanol extract) + CAZ combined
  combined-use MIC: 128 µg/mL
Strain A18, EA (P. clypearia 95% ethanol extract) combined with CAZ
  combined-use MIC: 128 µg/mL
Strain A18, EA (water extract) with CAZ
  combined-use MIC: 256 µg/mL
Strain A19, EA (10% ethanol extract) with CAZ
  combined-use MIC: 64 µg/mL
Strain A19, EA (60% ethanol extract) + CAZ combined
  combined-use MIC: 128 µg/mL
Strain A19, EA (P. clypearia 95% ethanol extract) combined with CAZ
  combined-use MIC: 128 µg/mL
Strain A19, EA (water extract) with CAZ
  combined-use MIC: 128 µg/mL
Strain A20, EA (10% ethanol extract) with CAZ
  combined-use MIC: 128 µg/mL
Strain A20, EA (60% ethanol extract) + CAZ combined
  combined-use MIC: 256 µg/mL
Strain A20, EA (P. clypearia 95% ethanol extract) combined with CAZ
  combined-use MIC: 256 µg/mL
Strain A20, EA (water extract) with CAZ
  combined-use MIC: 64 µg/mL
